One may read the IC50 as the midpoint of a concentration-inhibition curve.

The structures appear in SMILES notation.

This note sets out measurements from patent US20240067662A1, “KRAS INHIBITORS” (Bristol-Myers Squibb Company, priority 2022, published 2024).

GMPPNP-loaded KRAS G12C, sequence (P01116 1-188 isoform P01116-2 G12C): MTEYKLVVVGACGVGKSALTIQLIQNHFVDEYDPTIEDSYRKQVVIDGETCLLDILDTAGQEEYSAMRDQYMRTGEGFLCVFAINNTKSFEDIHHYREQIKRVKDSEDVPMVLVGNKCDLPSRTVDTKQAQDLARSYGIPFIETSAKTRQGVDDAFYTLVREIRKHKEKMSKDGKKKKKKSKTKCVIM

This test deals with GMPPNP-loaded KRAS G12C (Homo sapiens, UniProt P01116, G12C). Briefly: KRAS G12C RAF Disruption Assay (HTRF). The settings on record: recombinant GMPPNP-loaded KRAS G12C (5 nM), 20 min with compound; GST-RAF1 RBD (9 nM); HTRF signal; read-out: KRASG12C RAF Disruption Assay (IC50). Type of test: biochemical. The procedure:
KRAS^G12C RAF Disruption Assay
This is a functional assay that measures activity of compounds against KRAS-G12C^(ON), i.e., the active form of KRAS G12C. Recombinant GMPPNP-loaded KRAS G12C (5 nM) was treated with compound at room temperature for 20 minutes in assay buffer (50 mM Tris pH 7.5, 100 mM NaCl, 1 mM MgCl2, 1 mM DTT, 100ug/ml BSA). Recombinant GST-RAF1 RBD (9 nM) was added, and the reaction mixture was incubated for 20 minutes. SA-Tb (0.25 nM) was added, and the reaction mixture was incubated for 3 hours. HTRF signal was measured (PerkinElmer Envision), the signal ratio (λem 520/λem 495) was calculated, and IC50 values were calculated from the dose-response curve.
In general terms: In TR-FRET formats the signal depends on donor and acceptor labels being close together.
Turning to `C#Cc1cccc2cccc(-c3ncc4c(N(C)C5CCN(C(=O)/C(F)=C/c6ccccn6)C5C)nc(OC[C@@]56CCCN5C[C@H](F)C6)nc4c3F)c12` (single isomer, unassigned) [Example 74 cis isomer 1], the IC50 amounted to 1 µM.

Turning to `C#Cc1c(F)ccc2cccc(-c3ncc4c(N(C)[C@@H]5CCN(C(=O)/C(F)=C/c6nccs6)C5)nc(OC[C@@]56CCCN5C[C@H](F)C6)nc4c3F)c12` [Compound 118, (Z)-1-((R)-3-((7-(8-ethynyl-7-fluoronaphthalen-1-yl)-8-fluoro-2-(((2R, 7aS)-2-fluorotetrahydro-IH-pyrrolizin-7a(5H)-yl)methoxy)pyrido[4,3-d]pyrimidin-4-yl)(methyl)amino)pyrrolidin-1-yl)-2-fluoro-3-(thiazol-2-yl)prop-2-en-1-one], the IC50 came out at 0.03 µM.

Take `C#Cc1c(F)ccc2cc(O)cc(-c3ncc4c(N5CCN(C(=O)/C(F)=C/c6nccs6)C[C@@H]5C)nc(OC[C@@]56CCCN5C[C@H](F)C6)nc4c3F)c12` [Example 64, (Z)-1-((S)-4-(7-(8-ethynyl-7-fluoro-3-hydroxynaphthalen-1-yl)-8-fluoro-2-(((2R, 7aS)-2-fluorotetrahydro-1H-pyrrolizin-7a(5H)-yl)methoxy)pyrido[4,3-d]pyrimidin-4-yl)-3-methylpiperazin-1-yl)-2-fluoro-3-(thiazol-2-yl)prop-2-en-1-one]: the IC50 is 0.007 µM.

As to `C#Cc1cccc2cccc(-c3ncc4c(N5CC[C@@H]6CN(C(=O)/C(F)=C/c7ncccn7)C[C@@H]65)nc(OC[C@@]56CCCN5C[C@H](F)C6)nc4c3F)c12` [Compound 86, (Z)-1-((3aR, 6aR)-1-(7-(8-ethynylnaphthalen-1-yl)-8-fluoro-2-(((2R, 7aS)-2-fluorotetrahydro-1H-pyrrolizin-7a(5H)-yl)methoxy)pyrido[4,3-d]pyrimidin-4-yl)hexahydropyrrolo[3,4-b]pyrrol-5(1H)-yl)-2-fluoro-3-(pyrimidin-2-yl)prop-2-en-1-one], the IC50 came out at 0.11 µM.

Consider `C#Cc1c(F)ccc2cc(O)cc(-c3ncc4c(N5CCN(C(=O)/C(F)=C/c6nccs6)CC5)nc(OC[C@]56CCC[C@H]5N(C)CCC6)nc4c3F)c12` [Example 58, (Z)-1-(4-(7-(8-ethynyl-7-fluoro-3-hydroxynaphthalen-1-yl)-8-fluoro-2-(((4aS, 7aR)-1-methyloctahydro-4aH-cyclopenta[b]pyridin-4a-yl)methoxy)pyrido[4,3-d]pyrimidin-4-yl)piperazin-1-yl)-2-fluoro-3-(thiazol-2-yl)prop-2-en-1-one], for which the IC50 was 0.002 µM.

For `CN(c1nc(OC[C@@]23CCCN2C[C@H](F)C3)nc2c(F)c(-c3cccc4cccc(C#N)c34)ncc12)[C@@H]1CCN(C(=O)/C(F)=C/c2ccccn2)C1` [Compound 113, 8-(8-fluoro-4-(((R)-1-((Z)-2-fluoro-3-(pyridin-2-yl)acryloyl)pyrrolidin-3-yl)(methyl)amino)-2-(((2R, 7aS)-2-fluorotetrahydro-1H-pyrrolizin-7a(5H)-yl)methoxy)pyrido[4,3-d]pyrimidin-7-yl)-1-naphthonitrile], the IC50 was found to be 0.156 µM.

With `CN(c1nc(OC[C@@]23CCCN2C[C@H](F)C3)nc2c(F)c(-c3c(F)cc(F)c4sc(N)nc34)ncc12)[C@@H]1CCN(C(=O)/C(F)=C/c2ccccn2)C1` [Compound 119, (Z)-1-((3R)-3-((7-(2-amino-5,7-difluorobenzo[d]thiazol-4-yl)-8-fluoro-2-(((7aS)-2-fluorotetrahydro-1H-pyrrolizin-7a(5H)-yl)methoxy)pyrido[4,3-d]pyrimidin-4-yl)(methyl)amino)pyrrolidin-1-yl)-2-fluoro-3-(pyridin-2-yl)prop-2-en-1-one], the IC50 is 0.005 µM.

Turning to `C#Cc1cccc2cccc(-c3ncc4c(N5CCN(C(=O)/C(F)=C/c6nccs6)C[C@H]5C)nc(OC[C@@]56CCCN5C[C@H](F)C6)nc4c3F)c12` [Example 76, (Z)-1-((3R)-4-(7-(8-ethynylnaphthalen-1-yl)-8-fluoro-2-(((2R, 7aS)-2-fluorotetrahydro-1H-pyrrolizin-7a(5H)-yl)methoxy)pyrido[4,3-d]pyrimidin-4-yl)-3-methylpiperazin-1-yl)-2-fluoro-3-(thiazol-2-yl)prop-2-en-1-one], the 50% inhibitory concentration (IC50) turned out to be 0.59 µM.

`C#Cc1c(F)ccc2cc(O)cc(-c3ncc4c(N5C[C@H]6CC[C@@H](C5)N6C(=O)/C(F)=C/c5cccc(COC)n5)nc(OC[C@@]56CCCN5C[C@H](F)C6)nc4c3F)c12` [Compound 15, (Z)-1-((1R, 5S)-3-(7-(8-ethynyl-7-fluoro-3-hydroxynaphthalen-1-yl)-8-fluoro-2-(((2R, 7aS)-2-fluorotetrahydro-1H-pyrrolizin-7a(5H)-yl)methoxy)pyrido[4,3-d]pyrimidin-4-yl)-3,8-diazabicyclo[3.2.1]octan-8-yl)-2-fluoro-3-(6-(methoxymethyl)pyridin-2-yl)prop-2-en-1-one]: the IC50 was determined as 0.06 µM.

For the compound `C#Cc1cccc2cccc(-c3ncc4c(N5CCN(C(=O)/C(F)=C/c6ccccn6)CC5)nc(OC[C@@]56CCCN5C[C@H](F)C6)nc4c3F)c12` [Example 29, (Z)-1-(4-(7-(8-ethynylnaphthalen-1-yl)-8-fluoro-2-(((2R, 7aS)-2-fluorotetrahydro-1H-pyrrolizin-7a(5H)-yl)methoxy)pyrido[4,3-d]pyrimidin-4-yl)piperazin-1-yl)-2-fluoro-3-(pyridin-2-yl)prop-2-en-1-one], the IC50 came to 0.1 µM.

With `C#Cc1cccc2cccc(-c3ncc4c(N(C)C5CCN(C(=O)/C(F)=C/c6ccccn6)CC5)nc(OC[C@@]56CCCN5C[C@H](F)C6)nc4c3F)c12` [Compound 131, (Z)-1-(4-((7-(8-ethynylnaphthalen-1-yl)-8-fluoro-2-(((2R, 7aS)-2-fluorotetrahydro-1H-pyrrolizin-7a(5H)-yl)methoxy)pyrido[4,3-d]pyrimidin-4-yl)(methyl)amino)piperidin-1-yl)-2-fluoro-3-(pyridin-2-yl)prop-2-en-1-one], the IC50 was 4.2 µM.

In the case of `C#Cc1c(F)ccc2cc(O)cc(-c3ncc4c(N5CC6CCC(C5)N6C(=O)/C(F)=C/c5nc(Br)cs5)nc(OC[C@@]56CCCN5C[C@H](F)C6)nc4c3F)c12` [Compound 11, (Z)-3-(4-bromothiazol-2-yl)-1-((JR, 5S)-3-(7-(8-ethynyl-7-fluoro-3-hydroxynaphthalen-1-yl)-8-fluoro-2-(((2R, 7aS)-2-fluorotetrahydro-1H-pyrrolizin-7a(5H)-yl)methoxy)pyrido[4,3-d]pyrimidin-4-yl)-3,8-diazabicyclo[3.2.1]octan-8-yl)-2-fluoroprop-2-en-1-one], the IC50 amounted to 0.45 µM.

Take `C#Cc1c(F)ccc2cc(O)cc(-c3ncc4c(N5C[C@H]6CC[C@@H](C5)N6C(=O)/C(F)=C/c5nnc(C)s5)nc(OC[C@@]56CCCN5C[C@H](F)C6)nc4c3F)c12` [Compound 14, (Z)-1-((1R, 5S)-3-(7-(8-ethynyl-7-fluoro-3-hydroxynaphthalen-1-yl)-8-fluoro-2-(((2R, 7aS)-2-fluorotetrahydro-1H-pyrrolizin-7a(5H)-yl)methoxy)pyrido[4,3-d]pyrimidin-4-yl)-3,8-diazabicyclo[3.2.1]octan-8-yl)-2-fluoro-3-(5-methyl-1,3,4-thiadiazol-2-yl)prop-2-en-1-one]: the IC50 was 0.022 µM.

For `N#CC[C@H]1CN(c2nc(OC[C@@]34CCCN3C[C@H](F)C4)nc3c(F)c(-c4cc(F)ccc4C(F)(F)F)ncc23)CCN1C(=O)/C(F)=C/c1ccccn1` [Example 44, 2-((S)-1-((Z)-2-fluoro-3-(pyridin-2-yl)acryloyl)-4-(8-fluoro-7-(5-fluoro-2-(trifluoromethyl)phenyl)-2-(((2R, 7aS)-2-fluorotetrahydro-1H-pyrrolizin-7a(5H)-yl)methoxy)pyrido[4,3-d]pyrimidin-4-yl)piperazin-2-yl)acetonitrile], the half-maximal inhibitory concentration (IC50) turned out to be 0.36 µM.

With `C#Cc1cccc2cccc(-c3ncc4c(N5CCCN(C(=O)/C(F)=C/c6nccs6)CC5)nc(OC[C@@]56CCCN5C[C@H](F)C6)nc4c3F)c12` [Compound 78, (Z)-1-(4-(7-(8-ethynylnaphthalen-1-yl)-8-fluoro-2-(((2R, 7aS)-2-fluorotetrahydro-1H-pyrrolizin-7a(5H)-yl)methoxy)pyrido[4,3-d]pyrimidin-4-yl)-1,4-diazepan-1-yl)-2-fluoro-3-(thiazol-2-yl)prop-2-en-1-one], the IC50 came out at 0.12 µM.

For `N#Cc1cccc2[nH]cc(-c3ncc4c(N5CCN(C(=O)/C(F)=C/c6nccs6)CC5)nc(OC[C@@]56CCCN5C[C@H](F)C6)nc4c3F)c12` [Compound 134, 3-(8-fluoro-4-(4-((Z)-2-fluoro-3-(thiazol-2-yl)acryloyl)piperazin-1-yl)-2-(((2R, 7aS)-2-fluorotetrahydro-1H-pyrrolizin-7a(5H)-yl)methoxy)pyrido[4,3-d]pyrimidin-7-yl)-1H-indole-4-carbonitrile], the half-maximal inhibitory concentration (IC50) was 0.97 µM.

For `C#Cc1cccc2cccc(-c3ncc4c(N5CCC6(CCN6C(=O)/C(F)=C/c6nccs6)C5)nc(OC[C@@]56CCCN5C[C@H](F)C6)nc4c3F)c12` (single isomer, unassigned) [Compound 103], the IC50 worked out at 0.62 µM.

For the compound `C#Cc1c(F)ccc2cccc(-c3ncc4c(N5CCN(C(=O)/C(F)=C/c6nccs6)CC5)nc(OC[C@@]56CCCN5C[C@H](F)C6)nc4c3F)c12` [Example 53, (Z)-1-(4-(7-(8-ethynyl-7-fluoronaphthalen-1-yl)-8-fluoro-2-(((2R, 7aS)-2-fluorotetrahydro-1H-pyrrolizin-7a(5H)-yl)methoxy)pyrido[4,3-d]pyrimidin-4-yl)piperazin-1-yl)-2-fluoro-3-(thiazol-2-yl)prop-2-en-1-one], the IC50 amounted to 0.044 µM.
